Source: patent US20090215778A1, “Alpha-substituted Arylmethyl Piperazine Pyrazolo [1,5-alpha]Pyrimidine Amide Derivatives” (priority 2007, published 2009)

Legend:
[1] = biological target: T1, HIV Env six-helix bundle (6HB) structure (Human immunodeficiency virus type 1 group M subtype B, UniProt P04579); experiment: Six-helix bundle (6HB) assay; format: cell-based, HIV-1 (strain RF)
T1 construct: H9 cells chronically infected with HIV-1 (H9/HIV-1RF); endogenous in cells; host or cells: H9 cells chronically infected with HIV-1 strain RF (Env is made from the virus in the infected cells, not by transfection)
Procedure: 3×10^6H9 cells were incubated with 1 mL of HIV-1 (strain RF) supplemented with 40 μg/mL of DEAE-dextran. Virus and cells were incubated together at 37° C. for 2-4 hours with sporadic shaking to resuspend cells. 10 mL of media (RPMI 1640 containing 10% fetal bovine serum and supplemented with 50 μg/mL gentamicin) was then added and the virus-cell coculture was incubated at 37° C. in a humidified 5% CO2 incubator. 3 days post-infection and every 2-3 days thereafter, the infected H9/HIV-1RF cells were centrifuged, the supernatant was removed, and the cells were resuspended at a density of 0.3×10^6 cells/mL in media (RPMI 1640 containing 10% fetal bovine serum and supplemented with 50 μg/mL gentamicin). Chronically infected H9/HIV-1RF cells were used in experiments starting 12-15 days after infection and up to 40 days post-infection.
This assay determines the effect of compounds on conformational changes in HIV envelope glycoprotein (Env) that are required in order for Env to mediate the fusion of the viral and cellular membranes during virus entry and infection. Specifically, this assay measures the effect of compounds on the formation of the HIV Env six-helix bundle (6HB) structure.
H9 cells chronically infected with HIV-1 (H9/HIV-1RF) were resuspended in Stain/Wash Buffer (1% bovine serum albumin, 0.1% sodium azide in phosphate-buffered saline) and aliquoted at 2.5×10^5 cells per well into 96-well V-bottom plates containing various concentrations of test compounds. Cells and compounds were incubated for 30 minutes at 37° C. Recombinant soluble CD4 (sCD4) was then added to a final concentration of 1 μg/mL. Negative control wells contained no sCD4 and no test compound. Positive control wells contained sCD4 but no test compound. The plate was incubated for 1 hour at 37° C. to allow the sCD4 to bind to HIV Env and induce conformational changes in the Env protein. Antibody that is specific for the HIV Env six-helix bundle conformation was then added (1 μL polyclonal rabbit serum per well), and the plate was incubated for an additional 1 hour at 37° C. to permit antibody binding. The cells were then washed once with Stain/Wash Buffer to remove compound and excess antibody. The cells were resuspended in Stain/Wash Buffer containing PE-labeled anti-rabbit secondary antibody (KPL) at 0.25 μg per well. The cells were incubated for 45 min at 4° C. to permit secondary antibody binding. Fluorescence was detected using a BD FACSArray™ bioanalyzer. Compounds that inhibited Env conformational changes were identified as those that decreased primary antibody binding to the six-helix bundle epitope resulting in a decrease in fluorescence signal.

HIV-1, NL4-3 strain = experiment: Virus infection assay (virus entry and single-cycle infection); format: cell-based; details: Human immunodeficiency virus 1, NL43, TZM-b1, read-out: Nl4
Procedure: TZM-b1 indicator cells were propagated in Dulbecco's Modified Eagle's Medium (DMEM) containing 10% fetal bovine serum (FBS, heat-inactivated) and supplemented with gentamicin (50 ug/mL).
This assay determines the effects of compounds on virus entry and single-cycle infection of cells. In this assay, virus (HIV-1, NL4-3 strain) is added to indicator cells expressing the CD4 receptor and both the CXCR4 and CCR5 co-receptor. The cells contain both a lac Z and a luciferase reporter gene under control of the viral LTR transcription promoter. The cells and virus are incubated together in the presence of various concentrations of test compounds. Successful infection of the cells by the virus permits activation of the reporter gene by the viral Tat transcription factor. The resulting beta-galactosidase or luciferase activity is quantitated using a chemiluminescent substrate and a luminescent plate reader.
Specifically, one day prior to infection, 1.5×10^4 TZM-b1 indicator cells were added to each well of a 96-well microtiter plate. On the day of the experiment, virus (MOI 0.01) in 50 μL of medium (Dulbecco's Modified Eagle's Medium) supplemented with DEAE-dextran at a final concentration of 80 μg/mL was added to cells along with various concentrations of test compound in 50 μL of Dulbecco's Modified Eagle's Medium. Control wells had virus alone. Following a 4 hr incubation at 37° C., complete media [DMEM supplemented with 10% fetal bovine serum (FBS, heat-inactivated) and gentamicin (50 ug/mL)] was added. One day post-infection the level of virus infection was quantitated by detection of β-galactosidase expression using the Gal-Screen system (Applied Biosystems).

T1 sequence (P04579 32-519): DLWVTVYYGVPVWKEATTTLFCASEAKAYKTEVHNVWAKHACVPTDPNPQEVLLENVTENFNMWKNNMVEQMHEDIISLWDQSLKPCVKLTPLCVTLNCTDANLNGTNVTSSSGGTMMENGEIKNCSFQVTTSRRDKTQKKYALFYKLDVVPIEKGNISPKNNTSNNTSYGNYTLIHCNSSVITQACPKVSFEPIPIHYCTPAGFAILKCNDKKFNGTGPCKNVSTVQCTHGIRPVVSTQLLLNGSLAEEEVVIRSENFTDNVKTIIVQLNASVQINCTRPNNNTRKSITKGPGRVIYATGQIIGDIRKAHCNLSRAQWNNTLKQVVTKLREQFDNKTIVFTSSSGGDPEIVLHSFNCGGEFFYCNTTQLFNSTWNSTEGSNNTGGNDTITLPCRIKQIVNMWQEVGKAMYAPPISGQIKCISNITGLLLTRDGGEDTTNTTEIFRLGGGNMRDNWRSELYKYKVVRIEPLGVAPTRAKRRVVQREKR
T1 sequence (P04579 520-865): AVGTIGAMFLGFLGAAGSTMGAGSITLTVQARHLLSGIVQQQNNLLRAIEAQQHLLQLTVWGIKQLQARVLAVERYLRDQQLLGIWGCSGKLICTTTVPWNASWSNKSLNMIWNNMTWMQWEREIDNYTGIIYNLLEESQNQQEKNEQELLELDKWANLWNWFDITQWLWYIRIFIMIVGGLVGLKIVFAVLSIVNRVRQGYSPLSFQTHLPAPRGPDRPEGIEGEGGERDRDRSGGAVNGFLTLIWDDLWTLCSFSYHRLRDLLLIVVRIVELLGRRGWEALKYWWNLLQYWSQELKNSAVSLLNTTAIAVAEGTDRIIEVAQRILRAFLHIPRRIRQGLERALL

Row | SMILES | IC50 [1] | IC50 (HIV-1, NL4-3 strain)
1 | COc1ccc(-c2nc3c(C(=O)N4CCN([C@@H](C)c5cc(F)c(F)c(F)c5)C[C@H]4C)cnn3c(C(F)(F)F)c2C)cc1 [methanone, [5-(4-methoxyphenyl)-6-methyl-7-(trifluoromethyl)pyrazolo[1,5-α]pyrimidin-3-yl][(2R)-2-methyl-4-[(1S)-1-(3,4,5-trifluorophenyl)ethyl]-1-piperazinyl]-] | < 1000 nM | < 1000 nM
2 | COc1ccc(-c2nc3c(C(=O)N4CCN(C(CO)c5cccc(OC)c5)C[C@H]4C)cnn3c(C(F)(F)F)c2C)cc1 (stereo partly drawn) [methanone, [(2R)-4-[2-hydroxy-1-(3-methoxyphenyl)ethyl]-2-methyl-1-piperazinyl][5-(4-methoxyphenyl)-6-methyl-7-(trifluoromethyl)pyrazolo[1,5-α]pyrimidin-3-yl]-] | < 1000 nM | < 1000 nM
3 | COc1ccc(-c2nc3c(C(=O)N4CCN([C@@H](CO)c5ccccc5)C[C@H]4C)cnn3c(C(F)(F)F)c2C)cn1 [methanone, [(2R)-4-[(1R)-2-hydroxy-1-phenylethyl]-2-methyl-1-piperazinyl][5-(6-methoxy-3-pyridinyl)-6-methyl-7-(trifluoromethyl)pyrazolo[1,5-α]pyrimidin-3-yl]-] | < 1000 nM | < 1000 nM
4 | COc1ccc(-c2nc3c(C(=O)N4CCN(C(CO)c5cc(F)cc(F)c5)C[C@H]4C)cnn3c(C(F)(F)F)c2C)cc1 (stereo partly drawn) [methanone, [(2R)-4-[1-(3,5-difluorophenyl)-2-hydroxyethyl]-2-methyl-1-piperazinyl][5-(4-methoxyphenyl)-6-methyl-7-(trifluoromethyl)pyrazolo[1,5-α]pyrimidin-3-yl]-] | < 1000 nM | < 1000 nM
5 | COc1ccc(-c2nc3c(C(=O)N4CCN([C@@H](C)c5sccc5Cl)C[C@H]4C)cnn3c(C(F)(F)F)c2C)cc1 [methanone, [(2R)-4-[(1S)-1-(3-chloro-2-thienyl)ethyl]-2-methyl-1-piperazinyl][5-(4-methoxyphenyl)-6-methyl-7-(trifluoromethyl)pyrazolo[1,5-α]pyrimidin-3-yl]-] | < 1000 nM | < 1000 nM
6 | COc1ccc(-c2nc3c(C(=O)N4CCN([C@@H](C)c5oc(C)nc5C)C[C@H]4C)cnn3c(C(F)(F)F)c2C)cc1 [methanone, [(2R)-4-[(1S)-1-(2,4-dimethyl-5-oxazolyl)ethyl]-2-methyl-1-piperazinyl][5-(4-methoxyphenyl)-6-methyl-7-(trifluoromethyl)pyrazolo[1,5-α]pyrimidin-3-yl]-] | 1100 to 10000 nM | 1100 to 10000 nM
7 | COc1ccc(-c2nc3c(C(=O)N4CCN(C(CO)c5cccc(F)c5)C[C@H]4C)cnn3c(C(F)(F)F)c2C)cc1 (stereo partly drawn) [methanone, [(2R)-4-[1-(3-fluorophenyl)-2-hydroxyethyl]-2-methyl-1-piperazinyl][5-(4-methoxyphenyl)-6-methyl-7-(trifluoromethyl)pyrazolo[1,5-α]pyrimidin-3-yl]-] | < 1000 nM | < 1000 nM
8 | COc1ccc(-c2nc3c(C(=O)N4CCN([C@@H](C)c5cccc(N)c5)C[C@H]4C)cnn3c(C(F)(F)F)c2C)cc1 [methanone, [(2R)-4-[(1S)-1-(3-aminophenyl)ethyl]-2-methyl-1-piperazinyl][5-(4-methoxyphenyl)-6-methyl-7-(trifluoromethyl)pyrazolo[1,5-α]pyrimidin-3-yl]-] | < 1000 nM | < 1000 nM
9 | COc1ccc(-c2nc3c(C(=O)N4CCN([C@@H](C)c5ccccn5)C[C@H]4C)cnn3c(C(F)(F)F)c2C)cc1 [methanone, [5-(4-methoxyphenyl)-6-methyl-7-(trifluoromethyl)pyrazolo[1,5-α]pyrimidin-3-yl][(2R)-2-methyl-4-[(1S)-1-(2-pyridinyl)ethyl]-1-piperazinyl]-] | < 1000 nM | < 1000 nM
10 | COc1ccc(-c2nc3c(C(=O)N4CCN([C@@H](CO)c5ccccc5)C[C@H]4C)cnn3c(C(F)(F)F)c2C)cc1 [drawing 184, methanone, [(2R)-4-[(1R)-2-hydroxy-1-phenylethyl]-2-methyl-1-piperazinyl][5-(4-methoxyphenyl)-7-(trifluoromethyl)pyrazolo[1,5-α]pyrimidin-3-yl]-] | < 1000 nM | < 1000 nM
11 | COc1ccc(-c2nc3c(C(=O)N4CCN(C(CO)c5cccc(N(C)C)c5)C[C@H]4C)cnn3c(C(F)(F)F)c2C)cc1 (stereo partly drawn) [methanone, [(2R)-4-[1-[3-(dimethylamino)phenyl]-2-hydroxyethyl]-2-methyl-1-piperazinyl][5-(4-methoxyphenyl)-6-methyl-7-(trifluoromethyl)pyrazolo[1,5-α]pyrimidin-3-yl]-] | < 1000 nM | < 1000 nM
12 | COc1ccc(-c2nc3c(C(=O)N4CCN(C(c5ccccc5)C(C)O)C[C@H]4C)cnn3c(C(F)(F)F)c2C)cc1 (stereo partly drawn) [methanone, [(2R)-4-(2-hydroxy-1-phenylpropyl)-2-methyl-1-piperazinyl][5-(4-methoxyphenyl)-6-methyl-7-(trifluoromethyl)pyrazolo[1,5-α]pyrimidin-3-yl]-] | < 1000 nM | < 1000 nM
13 | COc1ccc(-c2nc3c(C(=O)N4CCN([C@@H](C)c5cccc(C#N)c5)C[C@H]4C)cnn3c(C(F)(F)F)c2C)cc1 | < 1000 nM | < 1000 nM
14 | COc1ccc(-c2nc3c(C(=O)N4CCN(C(CO)c5ccc(Cl)s5)C[C@H]4C)cnn3c(C(F)(F)F)c2C)cc1 (stereo partly drawn) [methanone, [(2R)-4-[1-(5-chloro-2-thienyl)-2-hydroxyethyl]-2-methyl-1-piperazinyl][5-(4-methoxyphenyl)-6-methyl-7-(trifluoromethyl)pyrazolo[1,5-α]pyrimidin-3-yl]-] | < 1000 nM | < 1000 nM
15 | COc1ccc(-c2nc3c(C(=O)N4CCN(C(CO)c5c(F)cccc5F)C[C@H]4C)cnn3c(C(F)(F)F)c2C)cc1 (stereo partly drawn) [methanone, [(2R)-4-[1-(2,6-difluorophenyl)-2-hydroxyethyl]-2-methyl-1-piperazinyl][5-(4-methoxyphenyl)-6-methyl-7-(trifluoromethyl)pyrazolo[1,5-α]pyrimidin-3-yl]-] | < 1000 nM | < 1000 nM
16 | COc1ccc(-c2nc3c(C(=O)N4CCN(C(CO)c5cc(F)cc(F)c5OC)C[C@H]4C)cnn3c(C(F)(F)F)c2C)cc1 (stereo partly drawn) [methanone, [(2R)-4-[1-(3,5-difluoro-2-methoxyphenyl)-2-hydroxyethyl]-2-methyl-1-piperazinyl][5-(4-methoxyphenyl)-6-methyl-7-(trifluoromethyl)pyrazolo[1,5-α]pyrimidin-3-yl]-] | < 1000 nM | < 1000 nM
17 | COc1ccc(-c2nc3c(C(=O)N4CCN([C@@H](C)c5ccc(F)c(F)c5)C[C@H]4C)cnn3c(C(F)(F)F)c2C)cc1 [methanone, [(2R)-4-[(1S)-1-(3,4-difluorophenyl)ethyl]-2-methyl-1-piperazinyl][5-(4-methoxyphenyl)-6-methyl-7-(trifluoromethyl)pyrazolo[1,5-α]pyrimidin-3-yl]-] | < 1000 nM | < 1000 nM
18 | COc1ccc(-c2nc3c(C(=O)N4CCN(C(CO)c5ccccc5Cl)C[C@H]4C)cnn3c(C(F)(F)F)c2C)cc1 (stereo partly drawn) [methanone, [(2R)-4-[1-(2-chlorophenyl)-2-hydroxyethyl]-2-methyl-1-piperazinyl][5-(4-methoxyphenyl)-6-methyl-7-(trifluoromethyl)pyrazolo[1,5-α]pyrimidin-3-yl]-] | < 1000 nM | < 1000 nM
